Experimental data published in patent US7018836B1, “P-TEFb compositions, methods and screening assays” (priority 1996, dated 2006).

Legend:
Drosophila TFIIH = test: CTD kinase assay with Drosophila TFIIH; assay type: biochemical; conditions: 20 μM DRB
Experimental: 0.4 μl of purified RNA polymerase II and various protein samples were mixed in 18 μl of 55 mM HMK. The reaction was then initiated by the addition of 2 μl of a solution containing 2 μCi of [γ-^32P]ATP (ICN) and unlabeled ATP at 10 μM, or only unlabeled ATP at concentrations from 1 to 100 μM or other NTPs or dNTPs at concentrations of 1 to 100 μM. Reactions were incubated for the indicated times at 23° C. and then terminated with SDS loading buffer. Samples were analyzed on a 6–15% SDS polyacrylamide gel which was silver stained, dried and subjected to autoradiography if the assay contained label.
To determine whether P-TEFb was related to the protein kinase associated with TFIIH (Roy et al., 1994; Feaver et al., 1994; Cismowski et al., 1995; Serizawa et al., 1995; Shiekhattar et al., 1995), P-TEFb was compared with Drosophila TFIIH purified from Drosophila embryos by the method of Austin and Biggin (1996).

P-TEFb = test: Phosphorylation by P-TEFb of RNA polymerase II in high salt washed early elongation complexes (western blot); assay type: biochemical, Drosophila; conditions: 20 μM DRB
[1] = tested on: DRB-sensitive runoff transcription in HeLa nuclear extract (P-TEFb-like activity); test: Pulse-chase transcription in HeLa nuclear extract; assay type: biochemical, human
Experimental: A pulse-chase protocol was used in which the template DNA was preincubated with the extract, 20 mM HEPES, pH 7.6 and 10 mM MgCl2 for 20 min at 30° C. Nucleotides, including [α-^32P]CTP were added to start the pulse; 2 min later, excess cold CTP was added to initiate the chase. Reactions were stopped after the indicated chase times. During the pulse, 10 μl reaction mixtures contained the following: 20 mM HEPES (pH 7.6), 10 mM MgCl2, 600 μM each GTP, UTP and ATP, 5 μCi of [α-^32P]CTP (˜1 μM CTP), 66 mM KCl, 10–40 μg/ml DNA template, and 3 μl of HeLa nuclear extract. For the chase, unlabeled CTP was added to bring the total concentration of CTP to 1.2 mM and the final reaction volume to 12 μl. Reaction mixtures containing 250 mM KCl, were supplemented with KCl at the beginning of the chase. Drosophila P-TEFb was added to the preincubation mixture where indicated. Reactions were stopped by adding 200 μl of stop solution (1% Sarkosyl, 50 mM Tris, pH 8.0, 50 mM EDTA, 100 mM NaCl and 100 μg/ml tRNA). The reaction mixtures were phenol extracted and the nucleic acids were ethanol precipitated, washed with 70% ethanol, dried and analyzed by gel electrophoresis.
For polyacrylamide gel electrophoresis, samples were resuspended in […] of 0.25×TBE (1×TBE contains 89 mM Tris base, 89 mM Boric acid and 2 mM EDTA) and 8 M urea, heated for 3 min at 85° C. and analyzed in 6% acrylamide-8 M urea-1×TBE gels. Denaturing agarose gel electrophoresis was performed by resuspending samples in 50% formamide-2.2 M formaldehyde-1× morpholinepropanesulfonic acid (MOPS) buffer (20 mM MOPS, pH 7.0; 5 mM sodium acetate, 1 mM EDTA) and heating the mixture at 60° C. for 5 min. Samples were resolved in a 2% agarose gel containing 2.2 M formaldehyde and IX MOPS buffer.

[2] = tested on: transcription from HIV-1 LTR; test: In vitro Tat transactivation in HNE with TAR and DTAR templates (FIG. 8); assay type: biochemical, human
Experimental: The transcription template (Nco I-digested pLTR-4/CAT vector containing the HIV-1 LTR from −153 to +80) was used in a pulse-chase transcription experiment. Reactions (12 μl total; 20 mM HEPES, pH 7.6, 7 mM MgCl2, 20 μg/ml DNA template, 3 μl HNE, 64 mM KCl, with 50 μM DRB or 0.3 μl Drosophila P-TEFb (Marshall et al., 1996) as indicated) were pre-incubated for 20 minutes at 30° C., pulsed for 2 minutes by adding ATP, GTP, UTP to 600 μM each and 5 μCi [α-^32P]CTP (˜0.1 mM), and chased for 5 minutes by adding CTP to 1.2 mM. Reactions were stopped, phenol extracted and analyzed on a 6% polyacrylamide gel as described (Marshall and Price, 1995). pLTR-TAR-Luc and pLTR-DTAR-Luc plasmids were digested with Eco RI to generate TAR and DTAR template that were used in the studies. The TAR template contains HIV-1 LTR from −475 to +76, while the DTAR template contains HIV-1 LTR from −475 to +19. Transcription with TAR and DTAR templates generates runoffs of 694 and 646 nucleotides, respectively. The transcription reaction mix contained 20 mM HEPES (pH7.6), 7 mM MgCl2, 60 mM KCl, 0.5 μl HNE (or depHNE as indicated), 20 μg/ml TAR template (or DTAR template as indicated), indicated amount of HIV-1 Tat (86 residue HIV-1 Tat followed by a streptavidin binding tag at its carboxyl terminus) and DRB. […] The transcripts were then analyzed on a 6% polyacrylamide gel as described (Marshall and Price, 1995).

[3] = tested on: mammalian cells in culture; conditions: DRB added to mammalian cells in culture; cited from earlier work

Row | Structure (SMILES) | sensitivity of CTD kinase activity of TFIIH (Drosophila TFIIH) | ability of P-TEFb to phosphorylate RNA polymerase II in an early elongation complex (P-TEFb) | DRB concentration at which maximum inhibition occurred [1] [µM] | formation of DRB-insensitive processive elongation complexes [1] | fraction of runoff generated that was DRB-sensitive [1] [%] | effect of DRB on Tat-stimulated runoff ([2]; 50 μM DRB) | sensitivity to DRB of the effect of Tat on initiation ([2]; pulse-only protocol) | inhibition in the production of mature mRNA [3] [%] | IC50 ([1]; HeLa NE, 2 min pulse/45 sec chase, read-out: 50% inhibition point of appearance of runoff) [µM]
1 | OC[C@H]1O[C@@H](n2cnc3cc(Cl)c(Cl)cc32)[C@H](O)[C@@H]1O [DRB, 5,6-dichloro-1-β-D-ribofuranosylbenzimidazole] | unaffected | inhibited | 30 | did not inhibit | 60 | mostly inhibited | not sensitive | 95 | –
2 | CNCCNS(=O)(=O)c1cccc2cnccc12 [H-8] | – | – | – | – | – | – | – | – | 20
